According to PubChem BioAssay (NCI):
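Cells were grown in 96-well plates and exposed to each compound for 48 hours at five concentrations; endpoints were interpolated linearly between bracketing concentrations, or set to the highest concentration if not reached. The concentration for full growth arrest is given as TGI.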

What was measured:
Assay in all cases: NCI-60 cell line screen, 48 h
KM12 colon = test system: KM12 colon
NCI-H23 lung = test system: NCI-H23 lung
A549 NSCLC = test system: A549 NSCLC
LOX IMVI melanoma = test system: LOX IMVI melanoma
UACC-257 melanoma = test system: UACC-257 melanoma
IGROV1 ovarian = test system: IGROV1 ovarian
K-562 leukemia = test system: K-562 leukemia
SK-MEL-5 melanoma = test system: SK-MEL-5 melanoma
CAKI-1 renal = test system: CAKI-1 renal
OVCAR-8 ovarian = test system: OVCAR-8 ovarian
U251 CNS = test system: U251 CNS
SW-620 colon = test system: SW-620 colon
SK-OV-3 ovarian = test system: SK-OV-3 ovarian
NCI-H226 lung = test system: NCI-H226 lung
HCT-15 colon = test system: HCT-15 colon
MDA-N = test system: MDA-N
SK-MEL-2 melanoma = test system: SK-MEL-2 melanoma
HS 578T breast = test system: HS 578T breast
MOLT-4 leukemia = test system: MOLT-4 leukemia
SF-268 CNS = test system: SF-268 CNS
EKVX NSCLC = test system: EKVX NSCLC
NCI-H522 lung = test system: NCI-H522 lung
RXF 393 renal = test system: RXF 393 renal
MALME-3M melanoma = test system: MALME-3M melanoma
OVCAR-5 ovarian = test system: OVCAR-5 ovarian
HCT-116 colon = test system: HCT-116 colon
MCF7 breast = test system: MCF7 breast
UACC-62 melanoma = test system: UACC-62 melanoma
RPMI-8226 leukemia = test system: RPMI-8226 leukemia
DU-145 prostate = test system: DU-145 prostate
MDA-MB-435 = test system: MDA-MB-435
TK-10 renal = test system: TK-10 renal
HL-60(TB) leukemia = test system: HL-60(TB) leukemia
OVCAR-3 ovarian = test system: OVCAR-3 ovarian
BT-549 breast = test system: BT-549 breast
OVCAR-4 ovarian = test system: OVCAR-4 ovarian
SF-295 CNS = test system: SF-295 CNS
COLO 205 colon = test system: COLO 205 colon
HCC-2998 colon = test system: HCC-2998 colon
SK-MEL-28 melanoma = test system: SK-MEL-28 melanoma
UO-31 renal = test system: UO-31 renal
NCI-H460 lung = test system: NCI-H460 lung
HOP-62 NSCLC = test system: HOP-62 NSCLC
786-0 renal = test system: 786-0 renal
CCRF-CEM leukemia = test system: CCRF-CEM leukemia
SNB-19 CNS = test system: SNB-19 CNS
SF-539 CNS = test system: SF-539 CNS
MDA-MB-231 breast = test system: MDA-MB-231 breast
ACHN renal = test system: ACHN renal
SR leukemia = test system: SR leukemia
T-47D breast = test system: T-47D breast
M14 melanoma = test system: M14 melanoma
NCI/ADR-RES ovarian = test system: NCI/ADR-RES ovarian
SN12C renal = test system: SN12C renal
HT29 colon = test system: HT29 colon
PC-3 prostate = test system: PC-3 prostate
SNB-75 CNS = test system: SNB-75 CNS
HOP-92 NSCLC = test system: HOP-92 NSCLC
A498 renal = test system: A498 renal

COc1cc(Nc2nc3ccc(C(F)(F)F)cc3nc2C(=O)O)cc(OC)c1OC
TGI (KM12 colon): 59.4 µM | TGI (NCI-H23 lung): 45.5 µM | TGI (A549 NSCLC): > 100 µM | TGI (LOX IMVI melanoma): 35.6 µM | TGI (UACC-257 melanoma): 43 µM | TGI (IGROV1 ovarian): 66.6 µM | TGI (K-562 leukemia): > 100 µM | TGI (SK-MEL-5 melanoma): > 100 µM | TGI (CAKI-1 renal): 61.7 µM | TGI (OVCAR-8 ovarian): 72.1 µM | TGI (U251 CNS): 36.7 µM | TGI (SW-620 colon): 59.9 µM | TGI (SK-OV-3 ovarian): > 100 µM | TGI (NCI-H226 lung): 40.6 µM | TGI (HCT-15 colon): 35.3 µM | TGI (MDA-N): 46.8 µM | TGI (SK-MEL-2 melanoma): 45.3 µM | TGI (HS 578T breast): 54.8 µM | TGI (MOLT-4 leukemia): > 100 µM | TGI (SF-268 CNS): 46.8 µM | TGI (EKVX NSCLC): 97.2 µM | TGI (NCI-H522 lung): 51.8 µM | TGI (RXF 393 renal): 54 µM | TGI (MALME-3M melanoma): 88.8 µM | TGI (OVCAR-5 ovarian): > 100 µM | TGI (HCT-116 colon): 34.9 µM | TGI (MCF7 breast): > 100 µM | TGI (UACC-62 melanoma): 38.2 µM | TGI (RPMI-8226 leukemia): 91.3 µM | TGI (DU-145 prostate): 80.6 µM | TGI (MDA-MB-435): 71.1 µM | TGI (TK-10 renal): 62.2 µM | TGI (HL-60(TB) leukemia): > 100 µM | TGI (OVCAR-3 ovarian): 93.5 µM | TGI (BT-549 breast): 37.9 µM | TGI (OVCAR-4 ovarian): 52.6 µM | TGI (SF-295 CNS): 81.9 µM | TGI (COLO 205 colon): 34.6 µM | TGI (HCC-2998 colon): 34.5 µM | TGI (SK-MEL-28 melanoma): 80.3 µM | TGI (UO-31 renal): 33.8 µM | TGI (NCI-H460 lung): 48.4 µM | TGI (HOP-62 NSCLC): 48.2 µM | TGI (786-0 renal): 74.6 µM | TGI (CCRF-CEM leukemia): > 100 µM | TGI (SNB-19 CNS): > 100 µM | TGI (SF-539 CNS): 86.5 µM | TGI (MDA-MB-231 breast): 53.9 µM | TGI (ACHN renal): 51.5 µM | TGI (SR leukemia): > 100 µM | TGI (T-47D breast): 78.3 µM | TGI (M14 melanoma): 93.3 µM | TGI (NCI/ADR-RES ovarian): 45.5 µM | TGI (SN12C renal): 38.1 µM | TGI (HT29 colon): 63.3 µM | TGI (PC-3 prostate): 56.1 µM | TGI (SNB-75 CNS): > 100 µM

COC(=O)Nc1nc2ccc(NC(=O)c3cccs3)cc2[nH]1
TGI (KM12 colon): > 100 µM | TGI (NCI-H23 lung): > 100 µM | TGI (A549 NSCLC): > 100 µM | TGI (LOX IMVI melanoma): > 100 µM | TGI (IGROV1 ovarian): 14.4 µM | TGI (K-562 leukemia): > 100 µM | TGI (SK-MEL-5 melanoma): 82.5 µM | TGI (CAKI-1 renal): > 100 µM | TGI (OVCAR-8 ovarian): > 100 µM | TGI (U251 CNS): > 100 µM | TGI (SW-620 colon): > 100 µM | TGI (SK-OV-3 ovarian): > 100 µM | TGI (NCI-H226 lung): > 100 µM | TGI (HCT-15 colon): > 100 µM | TGI (HOP-92 NSCLC): 40.7 µM | TGI (MDA-N): 36.7 µM | TGI (SK-MEL-2 melanoma): > 100 µM | TGI (A498 renal): 88.7 µM | TGI (HS 578T breast): 44.7 µM | TGI (MOLT-4 leukemia): > 100 µM | TGI (SF-268 CNS): > 100 µM | TGI (EKVX NSCLC): > 100 µM | TGI (RXF 393 renal): 86.7 µM | TGI (MALME-3M melanoma): 99.5 µM | TGI (OVCAR-5 ovarian): > 100 µM | TGI (HCT-116 colon): > 100 µM | TGI (MCF7 breast): > 100 µM | TGI (UACC-62 melanoma): > 100 µM | TGI (RPMI-8226 leukemia): 46.4 µM | TGI (DU-145 prostate): > 100 µM | TGI (MDA-MB-435): 39.4 µM | TGI (TK-10 renal): > 100 µM | TGI (HL-60(TB) leukemia): > 100 µM | TGI (OVCAR-3 ovarian): 47.3 µM | TGI (BT-549 breast): > 100 µM | TGI (OVCAR-4 ovarian): > 100 µM | TGI (SF-295 CNS): > 100 µM | TGI (COLO 205 colon): > 100 µM | TGI (SK-MEL-28 melanoma): > 100 µM | TGI (UO-31 renal): 36.2 µM | TGI (NCI-H460 lung): > 100 µM | TGI (HOP-62 NSCLC): > 100 µM | TGI (786-0 renal): > 100 µM | TGI (CCRF-CEM leukemia): > 100 µM | TGI (SNB-19 CNS): > 100 µM | TGI (SF-539 CNS): 60.2 µM | TGI (MDA-MB-231 breast): > 100 µM | TGI (ACHN renal): > 100 µM | TGI (T-47D breast): 88.1 µM | TGI (M14 melanoma): > 100 µM | TGI (NCI/ADR-RES ovarian): 55.4 µM | TGI (SN12C renal): > 100 µM | TGI (HT29 colon): > 100 µM | TGI (PC-3 prostate): > 100 µM | TGI (SNB-75 CNS): 65 µM
